{"source": "patent US10681909B2", "about": "“Herbicidal triazoles” (FMC Corporation, priority 2014, dated 2020)", "key": {"[1]": {"tested_on": "barley, spring", "assay": "Test D postemergence", "format": "in vivo, Hordeum vulgare", "conditions": "scale 0 to 100", "description": "(§1) Seeds of plant species selected from bluegrass (annual bluegrass, Poa annua), blackgrass (Alopecurus myosuroides), canarygrass (Phalaris minor), chickweed (common chickweed, Stellaria media), galium (catchweed bedstraw, Galium aparine), bromegrass, down (downy bromegrass, Bromus tectorum), Russian thistle (Salsola kali), field poppy (Papaver rhoeas), field violet (Viola arvensis), foxtail, green (green foxtail, Setaria viridis), deadnettle (henbit deadnettle, Lamium amplexicaule), ryegrass, Ital. (Italian ryegrass, Lolium multiflorum), kochia (Kochia scoparia), lambsquarters (Chenopodium album), oilseed rape (Brassica napus), pigweed (Amaranthus retroflexus), chamomile (scentless chamomile, Matricaria inodora), speedwell (bird's-eye speedwell, Veronica persica), barley, spring (spring barley, Hordeum vulgare), wheat, spring (spring wheat, Triticum aestivum), buckwheat, wild (wild buckwheat, Polygonum convolvulus), wild mustard (Sinapis arvensis), oat, wild (wild oat, Avena fatua), radish, wild (wild radish, Raphanus raphanistrum), […]), barley, winter (winter barley, Hordeum vulgare), and wheat, winter (winter wheat, Triticum aestivum) were planted into a silt loam soil and treated preemergence with test chemicals formulated in a non-phytotoxic solvent mixture which included a surfactant. At the same time, these species were planted in pots containing Sunshine Redi-Earth® planting medium comprising spaghnum peat moss, vermiculite, starter nutrients and dolomitic limestone and treated with postemergence applications of the test chemicals formulated in the same manner. Plants ranged in height from 2 to 18 cm (1- to 4-leaf stage). Treated plants and controls were maintained in a controlled growth environment for 14 to 21 d after which time all species were compared to controls and visually evaluated. […] A dash (-) response means no test result."}, "[2]": {"tested_on": "barley, winter", "assay": "Test D postemergence", "format": "in vivo, Hordeum vulgare", "conditions": "scale 0 to 100", "description": "as §1"}, "[3]": {"tested_on": "corn", "assay": "Test C preemergence", "format": "in vivo, Zea mays", "conditions": "for Plant response rating (scale of 0 to 100 where 0 is no effect and 100 is complete control): Corn, preemergence; for Corn plant response rating (0 to 100): Preemergence, visual rating after 13 to 15 d", "description": "(§2) Seeds of plant species selected from blackgrass (Alopecurus myosuroides), ryegrass, Italian (Italian ryegrass, Lolium multiflorum), wheat (winter wheat, Triticum aestivum), galium (catchweed bedstraw, Galium aparine), corn (Zea mays), crabgrass, large (large crabgrass, Digitaria sanguinalis), foxtail, giant, (giant foxtail, Setaria faberii), johnsongrass (Sorghum halepense), lambsquarters (Chenopodium album), morningglory (Ipomoea coccinea), nutsedge, yellow (yellow nutsedge, Cyperus esculentus), pigweed (Amaranthus retroflexus), ragweed (common ragweed, Ambrosia elatior), soybean (Glycine max), barnyardgrass (Echinochloa crus-galli), oilseed rape (Brassica napus), waterhemp (common waterhemp, Amaranthus rudis), and velvetleaf (Abutilon theophrasti) were planted into a blend of loam soil and sand and treated preemergence with test chemicals formulated in a non-phytotoxic solvent mixture which included a surfactant. At the same time, plants selected from these crop and weed species and also chickweed (common chickweed, Stellaria media), oat, wild (wild oat, Avena fatua), and kochia (Kochia scoparia), were planted in pots containing Sunshine Redi-Earth® planting medium comprising spaghnum peat moss, vermiculite, starter nutrients and dolomitic limestone and treated with postemergence applications of test chemicals formulated in the same manner. Plants ranged in height from 2 to 18 cm (1- to 4-leaf stage) for postemergence treatments. […] A dash (-) response means no test result."}, "[4]": {"tested_on": "corn", "assay": "Test A preemergence", "format": "in vivo, Zea mays", "conditions": "Zea mays, pre-emergence, 240 h, 0 to 100 scale (0 no effect, 100 complete control)", "in_short": "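Herbicidal response was scored on plants treated pre- or postemergence with surfactant-containing, non-phytotoxic solvent formulations. Preemergence meant a directed spray onto soil (loam–sand) holding sown seed; postemergence plants were at one to two leaves.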"}, "[5]": {"tested_on": "radish, wild", "assay": "Test D preemergence", "format": "in vivo, Raphanus raphanistrum", "conditions": "scale 0 to 100", "description": "as §1"}, "[6]": {"tested_on": "buckwheat, wild", "assay": "Test D preemergence", "format": "in vivo, Polygonum convolvulus", "conditions": "scale 0 to 100", "description": "as §1"}, "[7]": {"tested_on": "oat, wild", "assay": "Test D postemergence", "format": "in vivo, Avena fatua", "conditions": "scale 0 to 100", "description": "as §1"}, "[8]": {"tested_on": "oilseed rape", "assay": "Test C preemergence", "format": "in vivo, Brassica napus", "conditions": "for Plant response rating (scale of 0 to 100 where 0 is no effect and 100 is complete control): Oilseed Rape, preemergence; for Oilseed Rape plant response rating (0 to 100): Preemergence, visual rating after 13 to 15 d", "description": "as §2"}, "[9]": {"tested_on": "speedwell", "assay": "Test D postemergence", "format": "in vivo, Veronica persica", "conditions": "scale 0 to 100", "description": "as §1"}, "[10]": {"tested_on": "lambsquarters", "assay": "Test C preemergence", "format": "in vivo, Chenopodium album", "conditions": "for Plant response rating (scale of 0 to 100 where 0 is no effect and 100 is complete control): Lambsquarters, preemergence; for Lambsquarters plant response rating (0 to 100): Preemergence, visual rating after 13 to 15 d", "description": "as §2"}, "[11]": {"tested_on": "oilseed rape", "assay": "Test D preemergence", "format": "in vivo, Brassica napus", "conditions": "scale 0 to 100", "description": "as §1"}, "[12]": {"tested_on": "galium", "assay": "Test D preemergence", "format": "in vivo, Galium aparine", "conditions": "scale 0 to 100", "description": "as §1"}, "[13]": {"tested_on": "bromegrass, down", "assay": "Test D preemergence", "format": "in vivo, Bromus tectorum", "conditions": "scale 0 to 100", "description": "as §1"}, "[14]": {"tested_on": "canarygrass", "assay": "Test D preemergence", "format": "in vivo, Phalaris minor", "conditions": "scale 0 to 100", "description": "as §1"}}, "data": [{"smiles": "CCc1nc(-c2ccc(C(F)(F)F)cc2)nn1Cc1ccnc(C(F)(F)F)c1", "note": "[Compound 1, 4-[[5-ethyl-3-[4-(trifluoromethyl)phenyl]-1H-1,2,4-triazol-1-yl]methyl]-2-(trifluoromethyl)pyridine]", "values": [{"measurement": "Plant response rating: Barley, Spring", "setting": "[1]; 31 g ai/ha", "result": 20}, {"measurement": "Plant response rating: Barley, Spring", "setting": "[1]; 62 g ai/ha", "result": 35}, {"measurement": "Plant response rating: Barley, Spring", "setting": "[1]; 125 g ai/ha", "result": 35}, {"measurement": "Plant response rating: Barley, Spring", "setting": "[1]; 250 g ai/ha", "result": 40}, {"measurement": "Plant response rating: Barley, Winter", "setting": "[2]; 31 g ai/ha", "result": 20}, {"measurement": "Plant response rating: Barley, Winter", "setting": "[2]; 62 g ai/ha", "result": 25}, {"measurement": "Plant response rating: Barley, Winter", "setting": "[2]; 125 g ai/ha", "result": 35}, {"measurement": "Plant response rating: Barley, Winter", "setting": "[2]; 250 g ai/ha", "result": 40}, {"measurement": "Plant response rating (scale of 0 to 100 where 0 is no effect and 100 is complete control)", "setting": "[3]; 125 g ai/ha", "result": 25}, {"measurement": "Plant response rating (scale of 0 to 100 where 0 is no effect and 100 is complete control)", "setting": "[3]; 250 g ai/ha", "result": 40}, {"measurement": "Corn plant response rating (0 to 100)", "setting": "[3]; 31 g ai/ha", "result": 5}, {"measurement": "Corn plant response rating (0 to 100)", "setting": "[3]; 62 g ai/ha", "result": 15}, {"measurement": "Corn plant response rating (crop injury, 0 = no effect, 100 = complete kill) at 125 g/ha", "setting": "[4]; 125 g ai/ha", "result": 10, "unit": "%"}, {"measurement": "Corn plant response rating (crop injury, 0 = no effect, 100 = complete kill) at 500 g/ha", "setting": "[4]; 500 g ai/ha, approx. 10 d", "result": 20, "unit": "%"}, {"measurement": "Plant response rating: Radish, Wild", "setting": "[5]; 62 g ai/ha", "result": 100}, {"measurement": "Plant response rating: Radish, Wild", "setting": "[5]; 125 g ai/ha", "result": 100}, {"measurement": "Plant response rating: Radish, Wild", "setting": "[5]; 250 g ai/ha", "result": 100}, {"measurement": "Plant response rating: Buckwheat, Wild", "setting": "[6]; 31 g ai/ha", "result": 60}, {"measurement": "Plant response rating: Buckwheat, Wild", "setting": "[6]; 62 g ai/ha", "result": 70}, {"measurement": "Plant response rating: Buckwheat, Wild", "setting": "[6]; 125 g ai/ha", "result": 65}, {"measurement": "Plant response rating: Buckwheat, Wild", "setting": "[6]; 250 g ai/ha", "result": 100}, {"measurement": "Plant response rating: Oat, Wild", "setting": "[7]; 31 g ai/ha", "result": 25}, {"measurement": "Plant response rating: Oat, Wild", "setting": "[7]; 62 g ai/ha", "result": 30}, {"measurement": "Plant response rating: Oat, Wild", "setting": "[7]; 125 g ai/ha", "result": 35}, {"measurement": "Plant response rating: Oat, Wild", "setting": "[7]; 250 g ai/ha", "result": 45}, {"measurement": "Plant response rating (scale of 0 to 100 where 0 is no effect and 100 is complete control)", "setting": "[8]; 125 g ai/ha", "result": 100}, {"measurement": "Plant response rating (scale of 0 to 100 where 0 is no effect and 100 is complete control)", "setting": "[8]; 250 g ai/ha", "result": 100}, {"measurement": "Oilseed Rape plant response rating (0 to 100)", "setting": "[8]; 31 g ai/ha", "result": 25}, {"measurement": "Oilseed Rape plant response rating (0 to 100)", "setting": "[8]; 62 g ai/ha", "result": 90}, {"measurement": "Plant response rating: Speedwell", "setting": "[9]; 31 g ai/ha", "result": 100}, {"measurement": "Plant response rating: Speedwell", "setting": "[9]; 62 g ai/ha", "result": 100}, {"measurement": "Plant response rating: Speedwell", "setting": "[9]; 125 g ai/ha", "result": 100}, {"measurement": "Plant response rating: Speedwell", "setting": "[9]; 250 g ai/ha", "result": 100}, {"measurement": "Plant response rating (scale of 0 to 100 where 0 is no effect and 100 is complete control)", "setting": "[10]; 125 g ai/ha", "result": 98}, {"measurement": "Plant response rating (scale of 0 to 100 where 0 is no effect and 100 is complete control)", "setting": "[10]; 250 g ai/ha", "result": 98}, {"measurement": "Lambsquarters plant response rating (0 to 100)", "setting": "[10]; 31 g ai/ha", "result": 90}, {"measurement": "Lambsquarters plant response rating (0 to 100)", "setting": "[10]; 62 g ai/ha", "result": 98}, {"measurement": "Plant response rating: Oilseed Rape", "setting": "[11]; 62 g ai/ha", "result": 100}, {"measurement": "Plant response rating: Oilseed Rape", "setting": "[11]; 125 g ai/ha", "result": 100}, {"measurement": "Plant response rating: Oilseed Rape", "setting": "[11]; 250 g ai/ha", "result": 100}, {"measurement": "Plant response rating: Galium", "setting": "[12]; 125 g ai/ha", "result": 60}, {"measurement": "Plant response rating: Galium", "setting": "[12]; 250 g ai/ha", "result": 100}, {"measurement": "Plant response rating: Bromegrass, Down", "setting": "[13]; 31 g ai/ha", "result": 0}, {"measurement": "Plant response rating: Bromegrass, Down", "setting": "[13]; 62 g ai/ha", "result": 0}, {"measurement": "Plant response rating: Bromegrass, Down", "setting": "[13]; 125 g ai/ha", "result": 10}, {"measurement": "Plant response rating: Bromegrass, Down", "setting": "[13]; 250 g ai/ha", "result": 10}, {"measurement": "Plant response rating: Canarygrass", "setting": "[14]; 31 g ai/ha", "result": 5}, {"measurement": "Plant response rating: Canarygrass", "setting": "[14]; 62 g ai/ha", "result": 30}, {"measurement": "Plant response rating: Canarygrass", "setting": "[14]; 125 g ai/ha", "result": 60}, {"measurement": "Plant response rating: Canarygrass", "setting": "[14]; 250 g ai/ha", "result": 100}]}]}
